PubChem BioAssay (NCI)
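Growth conditions: 96-well plates. Treatment: test compound, 48 hours, 5 concentrations. Analysis: linear interpolation between bracketing concentrations; unreached endpoints set to highest concentration. TGI marks complete inhibition of growth.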

What was measured:
Test in all cases: DTP human tumour cell line panel, 48 h
786-0 renal = system: 786-0 renal
A498 renal = system: A498 renal
A549 NSCLC = system: A549 NSCLC
ACHN renal = system: ACHN renal
CAKI-1 renal = system: CAKI-1 renal
CCRF-CEM leukemia = system: CCRF-CEM leukemia
COLO 205 colon = system: COLO 205 colon
DLD-1 colon = system: DLD-1 colon
DMS 114 small cell lung = system: DMS 114 small cell lung
EKVX NSCLC = system: EKVX NSCLC
HCC-2998 colon = system: HCC-2998 colon
HCT-116 colon = system: HCT-116 colon
HL-60(TB) leukemia = system: HL-60(TB) leukemia
HOP-18 NSCLC = system: HOP-18 NSCLC
HOP-62 NSCLC = system: HOP-62 NSCLC
HOP-92 NSCLC = system: HOP-92 NSCLC
HT29 colon = system: HT29 colon
IGROV1 ovarian = system: IGROV1 ovarian
K-562 leukemia = system: K-562 leukemia
KM12 colon = system: KM12 colon
KM20L2 colon = system: KM20L2 colon
LOX IMVI melanoma = system: LOX IMVI melanoma
LXFL 529 NSCLC = system: LXFL 529 NSCLC
M14 melanoma = system: M14 melanoma
M19-MEL melanoma = system: M19-MEL melanoma
MALME-3M melanoma = system: MALME-3M melanoma
MOLT-4 leukemia = system: MOLT-4 leukemia
NCI-H226 lung = system: NCI-H226 lung
NCI-H23 lung = system: NCI-H23 lung
NCI-H522 lung = system: NCI-H522 lung
OVCAR-3 ovarian = system: OVCAR-3 ovarian
OVCAR-4 ovarian = system: OVCAR-4 ovarian
OVCAR-8 ovarian = system: OVCAR-8 ovarian
RXF 393 renal = system: RXF 393 renal
SF-268 CNS = system: SF-268 CNS
SF-295 CNS = system: SF-295 CNS
SF-539 CNS = system: SF-539 CNS
SK-MEL-28 melanoma = system: SK-MEL-28 melanoma
SK-MEL-5 melanoma = system: SK-MEL-5 melanoma
SK-OV-3 ovarian = system: SK-OV-3 ovarian
SN12C renal = system: SN12C renal
SNB-19 CNS = system: SNB-19 CNS
SNB-75 CNS = system: SNB-75 CNS
SNB-78 CNS = system: SNB-78 CNS
SR leukemia = system: SR leukemia
SW-620 colon = system: SW-620 colon
TK-10 renal = system: TK-10 renal
U251 CNS = system: U251 CNS
UACC-257 melanoma = system: UACC-257 melanoma
UACC-62 melanoma = system: UACC-62 melanoma
UO-31 renal = system: UO-31 renal
XF 498 CNS = system: XF 498 CNS
DMS 273 small cell lung = system: DMS 273 small cell lung
HCT-15 colon = system: HCT-15 colon
NCI-H460 lung = system: NCI-H460 lung
OVCAR-5 ovarian = system: OVCAR-5 ovarian
RPMI-8226 leukemia = system: RPMI-8226 leukemia
SK-MEL-2 melanoma = system: SK-MEL-2 melanoma

With `COc1ccc(NC(=O)COC(=O)c2cccc3c(=O)c4ccccc4[nH]c23)cc1` the TGI (786-0 renal) was 53.1 µM, the TGI (A498 renal) was 39.6 µM and the TGI (A549 NSCLC) was 53.2 µM. It also gave a TGI (ACHN renal) of 45.6 µM, a TGI (CAKI-1 renal) of 67.9 µM and a TGI (CCRF-CEM leukemia) of 28 µM. It also gave a TGI (COLO 205 colon) of 33.3 µM, a TGI (DLD-1 colon) of 31.9 µM and a TGI (DMS 114 small cell lung) of 37.8 µM. For the same compound, the TGI (EKVX NSCLC) was 96.2 µM, the TGI (HCC-2998 colon) was > 100 µM and the TGI (HCT-116 colon) was 25.5 µM. It also gave a TGI (HL-60(TB) leukemia) of 25.8 µM, a TGI (HOP-18 NSCLC) of 93.8 µM and a TGI (HOP-62 NSCLC) of 55.1 µM. It also gave a TGI (HOP-92 NSCLC) of 58.9 µM, a TGI (HT29 colon) of 29.5 µM and a TGI (IGROV1 ovarian) of 91.3 µM. It also gave a TGI (K-562 leukemia) of 37.2 µM, a TGI (KM12 colon) of 30.7 µM and a TGI (KM20L2 colon) of 51.7 µM. It also gave a TGI (LOX IMVI melanoma) of 28.3 µM, a TGI (LXFL 529 NSCLC) of 43.3 µM and a TGI (M14 melanoma) of 90.7 µM. It also gave a TGI (M19-MEL melanoma) of 39 µM, a TGI (MALME-3M melanoma) of 50.2 µM and a TGI (MOLT-4 leukemia) of 33.7 µM. For the same compound, the TGI (NCI-H226 lung) was 44.6 µM, the TGI (NCI-H23 lung) was 32 µM and the TGI (NCI-H522 lung) was 38.5 µM. The TGI (OVCAR-3 ovarian) was 43.8 µM, the TGI (OVCAR-4 ovarian) was 38.4 µM and the TGI (OVCAR-8 ovarian) was 55.9 µM. For the same compound, the TGI (RXF 393 renal) was 35.5 µM, the TGI (SF-268 CNS) was 55.2 µM and the TGI (SF-295 CNS) was 40.2 µM. It also gave a TGI (SF-539 CNS) of 37.1 µM, a TGI (SK-MEL-28 melanoma) of 84.8 µM and a TGI (SK-MEL-5 melanoma) of 30.1 µM. The TGI (SK-OV-3 ovarian) was 67.4 µM, the TGI (SN12C renal) was 92.8 µM and the TGI (SNB-19 CNS) was > 100 µM. It also gave a TGI (SNB-75 CNS) of 41.2 µM, a TGI (SNB-78 CNS) of 64.2 µM and a TGI (SR leukemia) of 28.9 µM. The TGI (SW-620 colon) was 60.1 µM, the TGI (TK-10 renal) was 42.1 µM and the TGI (U251 CNS) was 44.8 µM. The TGI (UACC-257 melanoma) was 42.7 µM, the TGI (UACC-62 melanoma) was 33.1 µM and the TGI (UO-31 renal) was 36.4 µM. For the same compound, the TGI (XF 498 CNS) was 36.5 µM.
`CCN(CC)CCC(=O)c1ccccc1` was tested, and the TGI (A549 NSCLC) was > 100 µM, the TGI (ACHN renal) was 29.7 µM and the TGI (CCRF-CEM leukemia) was 36.9 µM. For the same compound, the TGI (DMS 114 small cell lung) was 41.8 µM, the TGI (DMS 273 small cell lung) was 33.5 µM and the TGI (EKVX NSCLC) was > 100 µM. For the same compound, the TGI (HCC-2998 colon) was > 100 µM, the TGI (HCT-116 colon) was 31.8 µM and the TGI (HCT-15 colon) was 38.5 µM. For the same compound, the TGI (HL-60(TB) leukemia) was 43.9 µM, the TGI (HOP-18 NSCLC) was 30.1 µM and the TGI (HOP-62 NSCLC) was > 100 µM. For the same compound, the TGI (HOP-92 NSCLC) was 28.5 µM, the TGI (HT29 colon) was 70.2 µM and the TGI (IGROV1 ovarian) was > 100 µM. For the same compound, the TGI (KM12 colon) was > 100 µM, the TGI (KM20L2 colon) was 49.5 µM and the TGI (LOX IMVI melanoma) was 36 µM. For the same compound, the TGI (LXFL 529 NSCLC) was 32.1 µM, the TGI (M14 melanoma) was 31.5 µM and the TGI (M19-MEL melanoma) was 56.1 µM. The TGI (MOLT-4 leukemia) was 42.2 µM, the TGI (NCI-H226 lung) was > 100 µM and the TGI (NCI-H23 lung) was 45.6 µM. It also gave a TGI (NCI-H460 lung) of 97.8 µM, a TGI (OVCAR-3 ovarian) of 38.8 µM and a TGI (OVCAR-4 ovarian) of 40.5 µM. It also gave a TGI (OVCAR-5 ovarian) of 40.9 µM, a TGI (OVCAR-8 ovarian) of 58 µM and a TGI (RPMI-8226 leukemia) of 15.6 µM. The TGI (RXF 393 renal) was 34.7 µM, the TGI (SF-268 CNS) was 40.5 µM and the TGI (SF-539 CNS) was 44.2 µM. The TGI (SK-MEL-2 melanoma) was > 100 µM, the TGI (SK-MEL-28 melanoma) was 33 µM and the TGI (SK-MEL-5 melanoma) was > 100 µM. The TGI (SN12C renal) was 35.2 µM, the TGI (SNB-19 CNS) was > 100 µM and the TGI (SNB-75 CNS) was 38.8 µM. It also gave a TGI (SR leukemia) of 35.3 µM, a TGI (SW-620 colon) of 41.1 µM and a TGI (TK-10 renal) of 43.4 µM. It also gave a TGI (U251 CNS) of 47.4 µM, a TGI (UACC-257 melanoma) of 61.4 µM and a TGI (UO-31 renal) of 93 µM.
